Measured values: patent publication US20260166038A1, “METHOD OF ENHANCING THE EFFICACY OF A TARGETED PROTEIN DEGRADER AND ITS DERIVATIVE THERAPEUTICS” (ShanghaiTech University, priority 2022, published 2026)
Blank lines part the entries; values can stand above or below the molecule they belong to.

What was measured:
[1] = test system: DEPDC5 knockout OPM2 cells; assay: Cell viability (CellTiter-Lumi) of DEPDC5 knockout OPM2 under immunomodulatory drugs; assay type: cell-based, human; conditions: DEPDC5-KO OPM2; drug gradients starting from 1 μM; 5 days
Description: (§1) • (1) OPM2 cells in the logarithmic growth phase were seeded in a 96-well plate at 3000 cells/well. The volume of the cell suspension is 90 μl/well. • (2) Each well was added with 10 μl lenalidomide (Len), pomalidomide (Pom), CC-122, or CC-220 down the concentration gradients starting from 1 μM. Control groups with no drug treatment were set. Each drug had 7 gradients with 3 replicates. • (3) The plate was placed in a humidity-controlled environment (37° C., 5% CO2) for 5 days. • (4) Subsequently, 50 μl of CTL solution was added to each well under dark conditions. Then, the plate was placed on a shaker and shaken for 10 minutes, followed by reading on a microplate reader. • (5) The average absorbance values of the 3 replicates were used to plot the cell viability curves of OPM2 under drug treatment.
(§2) Cell viability was measured using the CellTiter-Lumi luminescent cell viability assay kit (Beyotime), with luminescence intensity reflecting cell viability, through an ATP-catalyzed luciferase reaction in the cell culture medium.

Wee1 = target: T1, Wee1 (Homo sapiens, UniProt P30291); assay: Western blot of Wee1 protein level in OPM2; assay type: cell-based; conditions: ZNL-02-096 10 nM + rapamycin 20 nM, 24 hours
T1 construct: endogenous in cells; host or cells: OPM2 myeloma cell line
Description: (§3) The protein levels were analyzed using Western blot.
Different concentrations of ZNL-02-096 (0, 1, 10 nM) and a fixed concentration of rapamycin (20 nM) were added to the myeloma cell line OPM2.

IKZF3 [2] = target: T2, IKZF3 (Homo sapiens, UniProt Q96SW2+Q9UKT9); assay: Western blot of IKZF3 in pomalidomide-resistant OPM2-P5000 and OPM2 cells; assay type: cell-based; conditions: pomalidomide-resistant myeloma cell line (OPM2-P5000; FIG. 7b OPM2); rapamycin 20 nM
T2 construct: Cell pellets were collected after 24 h and were lysed using RIPA; The protein levels were analyzed using Western blot; endogenous in cells; host or cells: OPM2, RPMI-8226, U266 myeloma cell lines
Description: as §3
In this embodiment, the myeloma cell line OPM2, which is sensitive to pomalidomide was subjected to long-term high-dose pomalidomide treatment to obtain the pomalidomide-resistant cell line OPM2-P5000. Pomalidomide and CC-92480 (0.5 nM, 25 nM) were administered to OPM2 cells, and pomalidomide and CC-92480 (0.5 nM, 3 μM) were administered to OPM2-P5000 cells. These treatments were combined with a fixed concentration of rapamycin (20 nM).

OPM2-P5000 = assay: Cell viability of pomalidomide-resistant OPM2-P5000 cells; assay type: cell-based, human; conditions: CC-92480 3 μM + rapamycin 20 nM, viability at 0, 96, 120 h
Description: as §1, §2
Meanwhile, this embodiment provides the following groups for cell viability test in the pomalidomide-resistant myeloma cell line OPM2-P5000: rapamycin alone (20 nM), pomalidomide alone (3 μM), CC-92480 alone (3 μM), combination treatment, and control. Cell viability was assessed on Oh, 96 h and 120 h post drug treatment using the same method as in Embodiment 1.

BRD4 = target: T3, BRD4 (Homo sapiens, UniProt O60885); assay: Western blot of BRD4 protein level in OPM2; assay type: cell-based; conditions: ARV-771 0.5 nM or 1 nM + rapamycin 20 nM, 24 hours
T3 construct: endogenous in cells; host or cells: OPM2 myeloma cell line
Description: as §3
Different concentrations of ARV-771 (0, 0.5, 1 nM) and a fixed concentration of rapamycin (20 nM) were added to the myeloma cell line OPM2.

GSPT1 [3] = target: T4, GSPT1 (Homo sapiens, UniProt P15170+Q96SW2); assay: Western blot of GSPT1 protein level in leukemia cell lines HL60 and MOLT-4; assay type: cell-based; conditions: degrader (10 nM CC90009) co-administered with varying concentrations of rapamycin; HL60, MOLT-4; 12 h
Description: as §3
The samples were collected after 12 h, and the protein levels were examined by the same method as in Embodiment 3.

GSPT1 [4] = target: T4, GSPT1; assay: Western blot of GSPT1 protein level in pancreatic cancer cell line KP4; assay type: cell-based; design: endogenous in cells; host or cells: KP4 pancreatic cancer cell line; conditions: 24 hours
RBM39 = target: T5, RBM39 (Homo sapiens, UniProt Q14498); assay: Western blot of RBM39 protein level in OPM2; assay type: cell-based; conditions: indisulam 1 μM + rapamycin 20 nM, 24 hours
T5 construct: endogenous in cells; host or cells: OPM2 myeloma cell line
T5 sequence (Q14498 1-530): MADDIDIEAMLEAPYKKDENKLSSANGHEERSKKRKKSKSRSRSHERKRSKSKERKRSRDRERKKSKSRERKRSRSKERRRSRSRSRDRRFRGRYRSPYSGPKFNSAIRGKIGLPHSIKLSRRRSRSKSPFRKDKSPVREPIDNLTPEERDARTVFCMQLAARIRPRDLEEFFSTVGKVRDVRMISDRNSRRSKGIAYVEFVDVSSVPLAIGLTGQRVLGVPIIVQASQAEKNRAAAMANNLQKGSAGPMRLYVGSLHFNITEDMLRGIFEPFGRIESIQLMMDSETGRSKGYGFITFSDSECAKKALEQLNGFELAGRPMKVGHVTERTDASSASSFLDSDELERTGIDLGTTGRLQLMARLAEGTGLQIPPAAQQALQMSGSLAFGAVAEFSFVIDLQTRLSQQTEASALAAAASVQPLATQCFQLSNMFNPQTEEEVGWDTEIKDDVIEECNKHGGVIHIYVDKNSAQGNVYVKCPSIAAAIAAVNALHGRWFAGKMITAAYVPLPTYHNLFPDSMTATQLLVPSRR
Description: as §3
Different concentrations of indisulam (0, 0.1, 1 μm) and a fixed concentration of rapamycin (20 nM) were added to the myeloma cell line OPM2. After 24 hours, protein levels were analyzed using the same method as in Embodiment 3.

MM1S = assay: Cell viability, pomalidomide combined with rapamycin, MM1S; assay type: cell-based, human; conditions: MM1S (pomalidomide-sensitive); viability at 0, 48, 96, 120 h; P<0.001
Description: as §1, with “Each drug had 7 gradients with 3 replicates. • (3) The plate was placed in a humidity-controlled environment (37° C., 5% CO2) for 5 days. • (4) Subsequently, 50 μl of CTL solution was added to each well under dark conditions.” left out
as §2
(§4) In this embodiment, the pomalidomide-sensitive myeloma cell lines (MM1S, H929 and OPM2) and the pomalidomide-resistant myeloma cell lines (U266 and RPMI-8226) were treated with mTOR signaling pathway inhibitor rapamycin alone, pomalidomide alone, a combination of rapamycin and pomalidomide, and control, respectively. Cell viability was assessed on Oh, 48 h, 96 h and 120 h post drug treatment. The detection used on each day is the same and has been described in Embodiment 1.

H929 = assay: Cell viability, pomalidomide combined with rapamycin, H929; assay type: cell-based, human; conditions: H929 (pomalidomide-sensitive); viability at 0, 48, 96, 120 h; P<0.001
Description: as §1, with “Each drug had 7 gradients with 3 replicates. • (3) The plate was placed in a humidity-controlled environment (37° C., 5% CO2) for 5 days. • (4) Subsequently, 50 μl of CTL solution was added to each well under dark conditions.” left out
as §2, §4

OPM2 = assay: Cell viability, pomalidomide combined with rapamycin, OPM2; assay type: cell-based, human; conditions: OPM2 (pomalidomide-sensitive); viability at 0, 48, 96, 120 h; P<0.001
Description: as §1, with “Each drug had 7 gradients with 3 replicates. • (3) The plate was placed in a humidity-controlled environment (37° C., 5% CO2) for 5 days. • (4) Subsequently, 50 μl of CTL solution was added to each well under dark conditions.” left out
as §2, §4

U266 = assay: Cell viability, pomalidomide combined with rapamycin, U266; assay type: cell-based, human; conditions: U266 (pomalidomide-resistant); viability at 0, 48, 96, 120 h; P<0.001
Description: as §1, with “Each drug had 7 gradients with 3 replicates. • (3) The plate was placed in a humidity-controlled environment (37° C., 5% CO2) for 5 days. • (4) Subsequently, 50 μl of CTL solution was added to each well under dark conditions.” left out
as §2, §4

RPMI-8226 = assay: Cell viability, pomalidomide combined with rapamycin, RPMI-8226; assay type: cell-based, human; conditions: RPMI-8226 (pomalidomide-resistant); viability at 0, 48, 96, 120 h; P<0.001
Description: as §1, with “Each drug had 7 gradients with 3 replicates. • (3) The plate was placed in a humidity-controlled environment (37° C., 5% CO2) for 5 days. • (4) Subsequently, 50 μl of CTL solution was added to each well under dark conditions.” left out
as §2, §4

IKZF3 [5] = target: T2, IKZF3; assay: Western blot of IKZF3 protein level in myeloma cell lines; assay type: cell-based
IKZF1 = IKZF1 (Homo sapiens, UniProt Q13422+Q96SW2)
Description: 25 nM of pomalidomide and varying concentrations of rapamycin were added to myeloma cell lines OPM2, RPMI-8226, and U266, respectively. Cell pellets were collected after 24 h and were lysed using RIPA. The protein levels were analyzed using Western blot.
Different concentrations of ZNL-02-096 (0, 1, 10, 10^2, 10^3 nM) and a fixed concentration of pomalidomide (25 nM) were added to the myeloma cell line OPM2. After 24 hours, protein levels were detected using the same method as in Embodiment 3.

[6] = pomalidomide 25 nM + varying concentrations of everolimus, OPM2, 24 hours

T2 sequence (Q9UKT9 whole entry): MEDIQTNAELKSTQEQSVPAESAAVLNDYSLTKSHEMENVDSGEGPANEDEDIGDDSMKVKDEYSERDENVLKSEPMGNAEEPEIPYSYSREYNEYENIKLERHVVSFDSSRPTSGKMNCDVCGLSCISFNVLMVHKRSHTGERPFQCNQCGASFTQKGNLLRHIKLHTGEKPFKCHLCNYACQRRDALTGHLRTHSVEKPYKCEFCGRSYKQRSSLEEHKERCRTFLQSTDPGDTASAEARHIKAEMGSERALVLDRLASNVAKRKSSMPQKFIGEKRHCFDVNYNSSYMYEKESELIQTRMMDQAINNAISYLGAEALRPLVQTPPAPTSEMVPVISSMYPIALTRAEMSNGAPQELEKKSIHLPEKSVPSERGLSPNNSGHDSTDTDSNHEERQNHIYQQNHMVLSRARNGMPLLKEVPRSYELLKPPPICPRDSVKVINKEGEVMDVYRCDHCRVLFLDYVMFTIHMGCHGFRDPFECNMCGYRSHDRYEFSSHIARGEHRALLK
T2 sequence (Q96SW2 whole entry): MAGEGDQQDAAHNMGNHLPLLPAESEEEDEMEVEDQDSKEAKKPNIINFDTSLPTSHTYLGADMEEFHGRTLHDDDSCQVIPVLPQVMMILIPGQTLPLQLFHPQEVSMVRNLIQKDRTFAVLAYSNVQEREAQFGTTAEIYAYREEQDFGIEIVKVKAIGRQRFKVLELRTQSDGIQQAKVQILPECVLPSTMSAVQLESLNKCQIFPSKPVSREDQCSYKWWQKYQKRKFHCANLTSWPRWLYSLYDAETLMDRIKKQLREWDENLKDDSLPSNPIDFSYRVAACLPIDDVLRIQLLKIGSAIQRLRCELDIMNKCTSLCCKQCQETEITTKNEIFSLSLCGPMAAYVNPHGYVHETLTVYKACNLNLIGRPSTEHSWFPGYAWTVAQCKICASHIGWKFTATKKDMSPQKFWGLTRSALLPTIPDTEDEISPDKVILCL
T2 sequence (Q16531 whole entry partner): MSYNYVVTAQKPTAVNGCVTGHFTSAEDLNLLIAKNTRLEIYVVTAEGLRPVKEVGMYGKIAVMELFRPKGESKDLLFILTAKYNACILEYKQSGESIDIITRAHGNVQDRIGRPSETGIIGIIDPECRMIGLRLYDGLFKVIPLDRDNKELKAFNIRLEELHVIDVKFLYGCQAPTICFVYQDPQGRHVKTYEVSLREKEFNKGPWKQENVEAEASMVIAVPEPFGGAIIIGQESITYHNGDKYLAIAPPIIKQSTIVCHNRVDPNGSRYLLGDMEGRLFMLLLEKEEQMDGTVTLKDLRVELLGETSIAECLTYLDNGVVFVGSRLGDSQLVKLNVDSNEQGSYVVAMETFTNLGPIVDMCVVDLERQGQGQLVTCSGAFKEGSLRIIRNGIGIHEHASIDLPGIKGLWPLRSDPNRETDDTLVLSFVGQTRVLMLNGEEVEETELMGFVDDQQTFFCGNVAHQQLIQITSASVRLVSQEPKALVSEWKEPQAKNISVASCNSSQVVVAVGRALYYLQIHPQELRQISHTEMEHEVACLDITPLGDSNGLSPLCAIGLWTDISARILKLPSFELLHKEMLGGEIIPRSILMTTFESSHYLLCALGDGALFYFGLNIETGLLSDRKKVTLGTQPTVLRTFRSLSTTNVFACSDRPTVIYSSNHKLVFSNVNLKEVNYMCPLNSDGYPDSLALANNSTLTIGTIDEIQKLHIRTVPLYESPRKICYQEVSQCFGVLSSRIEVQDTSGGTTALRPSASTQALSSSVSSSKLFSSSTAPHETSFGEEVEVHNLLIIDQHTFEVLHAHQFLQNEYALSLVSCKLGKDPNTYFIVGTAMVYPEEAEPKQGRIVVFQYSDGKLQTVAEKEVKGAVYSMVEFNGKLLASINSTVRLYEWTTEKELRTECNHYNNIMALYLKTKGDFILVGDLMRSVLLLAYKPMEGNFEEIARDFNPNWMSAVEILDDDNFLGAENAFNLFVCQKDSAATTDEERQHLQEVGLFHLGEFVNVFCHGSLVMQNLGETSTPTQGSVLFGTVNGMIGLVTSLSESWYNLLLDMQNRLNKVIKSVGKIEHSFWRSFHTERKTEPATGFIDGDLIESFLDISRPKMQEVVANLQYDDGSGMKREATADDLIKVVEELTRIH
T4 sequence (P15170 whole entry): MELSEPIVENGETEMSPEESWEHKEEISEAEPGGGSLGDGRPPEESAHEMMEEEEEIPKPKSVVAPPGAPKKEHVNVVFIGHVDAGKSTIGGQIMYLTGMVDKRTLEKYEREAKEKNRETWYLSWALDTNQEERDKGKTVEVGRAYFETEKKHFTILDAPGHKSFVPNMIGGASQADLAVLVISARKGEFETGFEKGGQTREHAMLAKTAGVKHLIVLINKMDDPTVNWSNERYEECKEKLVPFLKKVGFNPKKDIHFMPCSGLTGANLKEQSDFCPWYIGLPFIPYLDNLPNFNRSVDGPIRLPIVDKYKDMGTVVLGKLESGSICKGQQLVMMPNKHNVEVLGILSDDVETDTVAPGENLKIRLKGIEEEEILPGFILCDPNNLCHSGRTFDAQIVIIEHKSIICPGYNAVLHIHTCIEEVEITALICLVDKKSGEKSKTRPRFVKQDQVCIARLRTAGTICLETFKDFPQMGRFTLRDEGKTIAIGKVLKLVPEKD
T4 sequence (Q96SW2 whole entry): as the sequence (Q96SW2 whole entry) above
T4 sequence (Q16531 whole entry partner): as the sequence (Q16531 whole entry partner) above
IKZF1, sequence (Q16531 whole entry): as the sequence (Q16531 whole entry partner) above
IKZF1, sequence (Q96SW2 whole entry): as the sequence (Q96SW2 whole entry) above
IKZF1, sequence (Q13422 whole entry): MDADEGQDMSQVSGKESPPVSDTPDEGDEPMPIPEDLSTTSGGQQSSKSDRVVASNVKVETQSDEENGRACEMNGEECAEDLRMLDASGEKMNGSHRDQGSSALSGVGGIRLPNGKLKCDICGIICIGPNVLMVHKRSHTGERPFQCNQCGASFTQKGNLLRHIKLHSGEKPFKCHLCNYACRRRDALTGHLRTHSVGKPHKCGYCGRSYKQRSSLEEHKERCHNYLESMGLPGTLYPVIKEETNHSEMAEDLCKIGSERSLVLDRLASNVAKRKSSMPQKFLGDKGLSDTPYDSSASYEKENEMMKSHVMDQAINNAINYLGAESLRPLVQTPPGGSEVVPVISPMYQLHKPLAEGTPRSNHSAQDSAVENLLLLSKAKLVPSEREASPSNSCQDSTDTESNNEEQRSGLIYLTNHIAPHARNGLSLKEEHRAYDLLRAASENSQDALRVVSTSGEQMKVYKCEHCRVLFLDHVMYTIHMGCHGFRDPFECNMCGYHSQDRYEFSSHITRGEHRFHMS
T1 sequence (P30291 whole entry): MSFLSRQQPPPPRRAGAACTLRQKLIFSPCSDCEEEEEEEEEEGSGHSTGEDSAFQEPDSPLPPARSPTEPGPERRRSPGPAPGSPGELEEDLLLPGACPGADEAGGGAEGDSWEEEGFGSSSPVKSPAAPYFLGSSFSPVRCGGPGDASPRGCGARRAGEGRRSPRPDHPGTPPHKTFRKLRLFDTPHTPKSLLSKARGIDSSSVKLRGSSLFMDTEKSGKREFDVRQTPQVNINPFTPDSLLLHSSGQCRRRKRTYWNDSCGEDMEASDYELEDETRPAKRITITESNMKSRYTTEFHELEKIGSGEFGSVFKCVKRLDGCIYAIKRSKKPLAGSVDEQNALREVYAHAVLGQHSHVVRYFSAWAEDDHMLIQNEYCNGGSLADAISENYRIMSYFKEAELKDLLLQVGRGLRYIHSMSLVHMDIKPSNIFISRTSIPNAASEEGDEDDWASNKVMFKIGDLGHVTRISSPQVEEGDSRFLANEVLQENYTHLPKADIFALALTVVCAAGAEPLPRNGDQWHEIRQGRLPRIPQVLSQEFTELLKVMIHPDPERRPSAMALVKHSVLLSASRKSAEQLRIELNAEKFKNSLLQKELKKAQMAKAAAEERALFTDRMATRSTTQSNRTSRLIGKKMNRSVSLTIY

SMILES: Cc1nc2cccc(N)c2c(=O)n1C1CCC(=O)NC1=O (stereo not shown) [CC-122]
cell viability (killing curve) of DEPDC5 knockout cells compared to the control group [1]: exhibit resistance

degradation of the substrate Wee1, combination with rapamycin vs alone (Wee1): stronger degradation effect
SMILES: C=CCn1c(=O)c2cnc(Nc3ccc(N4CCN(CCCNc5cccc6c5C(=O)N(C5CCC(=O)NC5=O)C6=O)CC4)cc3)nc2n1-c1cccc(C(C)(C)O)n1 (stereo not shown) [ZNL-02-096]

SMILES: N#Cc1ccc(N2CCN(Cc3ccc(COc4cccc5c4CN([C@H]4CCC(=O)NC4=O)C5=O)cc3)CC2)c(F)c1 [CC-92480]
degradation of the substrate IKZF3, co-administration with rapamycin (IKZF3 [2]): enhance the degradation | killing effect on myeloma cells, co-administered with rapamycin (OPM2-P5000): stronger killing effect

degradation of the substrate BRD4, combination with rapamycin vs alone (BRD4): stronger degradation effect
SMILES: Cc1ncsc1-c1ccc([C@H](C)NC(=O)[C@@H]2C[C@@H](O)CN2C(=O)[C@@H](NC(=O)COCCCOCCNC(=O)C[C@@H]2N=C(c3ccc(Cl)cc3)c3c(sc(C)c3C)-n3c(C)nnc32)C(C)(C)C)cc1 [ARV-771]

SMILES: O=C1CC[C@H](N2Cc3c(OCc4ccc(CN5CCOCC5)cc4)cccc3C2=O)C(=O)N1 [CC-220]
cell viability (killing curve) of DEPDC5 knockout cells compared to the control group [1]: exhibit resistance

level of substrate protein GSPT1 (GSPT1 [3]): significantly reduced | degradation of the substrate GSPT1, combination with everolimus (GSPT1 [4]; CC-90009 1 μM or CC-885 0.1 μM + everolimus 0.01, 0.1 μM): stronger degradation effect | degradation of the substrate GSPT1, combination with rapamycin (GSPT1 [4]; CC-90009 1 μM or CC-885 0.1 μM + rapamycin 0.01, 0.1 μM): stronger degradation effect
SMILES: Cc1ccc(NC(=O)NCc2ccc3c(c2)CN(C2CCC(=O)NC2=O)C3=O)cc1Cl (stereo not shown) [CC-885]

degradation of the substrate RBM39, combination with rapamycin vs alone (RBM39): stronger degradation effect
SMILES: NS(=O)(=O)c1ccc(S(=O)(=O)Nc2cccc3c(Cl)c[nH]c23)cc1 [indisulam]

SMILES: Nc1cccc2c1C(=O)N(C1CCC(=O)NC1=O)C2=O (stereo not shown) [pomalidomide]
cell viability (killing curve) of DEPDC5 knockout cells compared to the control group [1]: exhibit resistance | killing of myeloma cells, combination with rapamycin vs pomalidomide alone (MM1S): stronger effect in killing myeloma cells | killing of myeloma cells, combination with rapamycin vs pomalidomide alone (H929): stronger effect in killing myeloma cells | killing of myeloma cells, combination with rapamycin vs pomalidomide alone (OPM2): stronger effect in killing myeloma cells | killing of myeloma cells, combination with rapamycin vs pomalidomide alone (U266): stronger effect in killing myeloma cells | killing of myeloma cells, combination with rapamycin vs pomalidomide alone (RPMI-8226): stronger effect in killing myeloma cells | level of the substrate IKZF3 (IKZF3 [5]; 25 nM pomalidomide co-administered with varying concentrations of rapamycin, OPM2, RPMI-8226, U266, 24 h): significantly reduced | degradation of the substrate IKZF3, combination with everolimus (IKZF3 [5]; [6]): stronger degradation effect | degradation of IKZF1 (IKZF1; 25 nM pomalidomide co-administered with rapamycin, OPM2, RPMI-8226, U266, 24 h): enhances the degradation | degradation of the substrate IKZF1, combination with everolimus (IKZF1; [6]): stronger degradation effect | degradation of the substrate IKZF3, co-administration with rapamycin (IKZF3 [2]): enhance the degradation

SMILES: Nc1cccc2c1CN(C1CCC(=O)NC1=O)C2=O (stereo not shown) [lenalidomide]
cell viability (killing curve) of DEPDC5 knockout cells compared to the control group [1]: exhibit resistance
